Source: US9056863B2, “Substituted 2,3,5,9,9B-pentaazacyclopenta[a]naphthalenes and uses thereof” (H. Lundbeck A/S, priority 2011, dated 2015)
Each block holds one molecule with its values, some of them ahead of it.

How the values were obtained:
[1] = target: human PDE10A (Homo sapiens (Human), UniProt Q9Y233); test: PDE10A inhibition assay; assay type: biochemical; details: for PDE10 % inhibition: @ 10,000 nM
Procedure: Active PDE10A enzyme is prepared in a number of ways for use in PDE assays (Loughney, K. et al. Gene 1999, 234, 109-117; Fujishige, K. et al. Eur J. Biochem. 1999, 266, 1118-1127 and Soderling, S. et al. Proc. Natl. Acad. Sci. 1999, 96, 7071-7076). PDE10A can be expressed as full-length proteins or as truncated proteins, as long as they express the catalytic domain. PDE10A can be prepared in different cell types, for example insect cells or E. coli. An example of a method to obtain catalytically active PDE10A is as follows: The catalytic domain of human PDE10A (amino acids 440-779 from the sequence with accession number NP 006652) is amplified from total human brain total RNA by standard RT-PCR and is cloned into the BamH1 and XhoI sites of the pET28a vector (Novagen). Expression in coli is performed according to standard protocols. Briefly, the expression plasmids are transformed into the BL21(DE3) E. coli strain, and 50 mL cultures inoculated with the cells allowed to grow to an OD600 of 0.4-0.6 before protein expression is induced with 0.5 mM IPTG. Following induction, the cells are incubated overnight at room temperature, after which the cells are collected by centrifugation. Cells expressing PDE10A are resuspended in 12 mL (50 mM TRIS-HCl-pH8.0, 1 mM MgCl2 and protease inhibitors). The cells are lysed by sonication, and after all cells are lysed, TritonX100 is added according to Novagen protocols.
A typical PDE10A assay was performed as follows: the assay was performed in 60 μL samples containing a fixed amount of the […] enzyme (sufficient to convert 20-25% of the cyclic nucleotide substrate), a buffer (50 mM HEPES pH 7.6; 10 mM MgCl2; 0.02% Tween20), 10 nM tritium labelled cAMP and varying amounts of inhibitors. […] The beads were allowed to settle for 1 h in the dark before the plates were counted in a Wallac 1450 Microbeta counter. The measured signals were converted to activity relative to an uninhibited control (100%) and IC50 values were calculated using XlFit (model 205, IDBS).

[2] = target: human PDE2A enzyme (Homo sapiens (Human), UniProt O00408); test: PDE2A inhibition assay; assay type: biochemical; details: 15 nM tritium labelled cAMP, SPA
Chain of human PDE2A enzyme (O00408 whole entry): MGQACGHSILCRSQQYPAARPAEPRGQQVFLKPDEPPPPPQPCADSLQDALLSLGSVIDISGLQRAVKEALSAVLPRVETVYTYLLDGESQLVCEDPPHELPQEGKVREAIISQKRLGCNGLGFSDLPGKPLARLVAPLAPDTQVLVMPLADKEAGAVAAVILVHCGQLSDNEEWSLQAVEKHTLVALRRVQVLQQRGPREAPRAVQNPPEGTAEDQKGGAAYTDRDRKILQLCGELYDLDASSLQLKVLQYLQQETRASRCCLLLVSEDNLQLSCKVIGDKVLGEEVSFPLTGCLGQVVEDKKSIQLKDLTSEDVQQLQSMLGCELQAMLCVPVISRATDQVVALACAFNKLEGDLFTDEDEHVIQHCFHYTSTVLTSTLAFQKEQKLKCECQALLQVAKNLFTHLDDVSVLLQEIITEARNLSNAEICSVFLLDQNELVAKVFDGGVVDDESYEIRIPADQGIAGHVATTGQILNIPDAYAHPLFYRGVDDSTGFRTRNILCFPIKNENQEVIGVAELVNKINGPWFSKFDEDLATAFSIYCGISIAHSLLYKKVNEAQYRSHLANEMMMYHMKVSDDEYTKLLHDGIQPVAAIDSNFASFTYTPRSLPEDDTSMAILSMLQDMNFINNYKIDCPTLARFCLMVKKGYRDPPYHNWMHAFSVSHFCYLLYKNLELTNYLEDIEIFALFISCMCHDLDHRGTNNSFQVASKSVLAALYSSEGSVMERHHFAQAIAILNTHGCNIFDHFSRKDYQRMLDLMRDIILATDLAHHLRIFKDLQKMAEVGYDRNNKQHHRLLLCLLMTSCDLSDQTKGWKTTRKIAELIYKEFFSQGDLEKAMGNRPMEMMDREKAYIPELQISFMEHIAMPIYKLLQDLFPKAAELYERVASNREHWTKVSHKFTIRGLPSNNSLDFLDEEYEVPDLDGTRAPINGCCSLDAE
Procedure: Likewise, active human PDE2A enzyme (ATCC68585) is prepared in a number of ways for use in PDE assays and procedures are well known to those skilled in the art.
A typical PDE2A assay was performed as follows: the assay was performed in 60 μL samples containing a fixed amount of the […] enzyme (sufficient to convert 20-25% of the cyclic nucleotide substrate), a buffer (50 mM HEPES pH 7.6; 10 mM MgCl2; 0.02% Tween20), 0.1 mg/ml BSA, 15 nM tritium labelled cAMP and varying amounts of inhibitors. Reactions were initiated by addition of the cyclic nucleotide substrate, and reactions were allowed to proceed for 1 h at room temperature before being terminated through mixing with 20 μL (0.2 mg) yttrium silicate SPA beads (Amersham). The beads were allowed to settle for 1 h in the dark before the plates were counted in a Wallac 1450 Microbeta counter. The measured signals were converted to activity relative to an uninhibited control (100%) and IC50 values were calculated using XlFit (model 205, IDBS).

[3] = cited from earlier work
[4] = aged rats; cited from earlier work
[5] = test system: primary neuronal cultures and hippocampal slices; details: cited from earlier work
[6] = mice, BSO glutathione depletion; cited from earlier work
[7] = test system: rat hippocampal slices; details: cited from earlier work
[8] = tryptophan depletion; cited from earlier work
[9] = in vivo; cited from earlier work
[10] = cited from earlier work; remark: listed apart in the source
[11] = rats; cited from earlier work
[12] = rats, subchronic phencyclidine; cited from earlier work

Chain of human PDE10A (Q9Y233 716-1055): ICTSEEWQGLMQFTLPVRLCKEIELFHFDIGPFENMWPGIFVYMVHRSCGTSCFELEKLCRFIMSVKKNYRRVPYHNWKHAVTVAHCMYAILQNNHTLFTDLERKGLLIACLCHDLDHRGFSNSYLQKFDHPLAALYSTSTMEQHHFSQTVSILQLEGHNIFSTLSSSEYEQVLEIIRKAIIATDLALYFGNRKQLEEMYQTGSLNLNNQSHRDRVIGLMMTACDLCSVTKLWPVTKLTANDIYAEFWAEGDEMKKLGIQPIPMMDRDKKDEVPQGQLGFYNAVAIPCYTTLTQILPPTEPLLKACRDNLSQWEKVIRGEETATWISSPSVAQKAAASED

IC50 ([1]; 10 nM tritium labelled cAMP, SPA, read-out: PDE10 IC50): 1760 nM
Structure (SMILES): Cc1nc2ccncc2n2c(-c3ccccc3Cl)nnc12 [Example Ic1, 1-(2-Chloro-phenyl)-4-methyl-2,3,5,8,9b-pentaaza-cyclopenta[a]naphthalene]

IC50 [2]: 504 nM
PDE10 % inhibition [1]: 48% inhibition
Structure (SMILES): Cc1cccc(Cl)c1-c1nnc2c(C)nc3ncccc3n12 [Example Ia2, 1-(2-Chloro-6-methyl-phenyl)-4-methyl-2,3,5,6,9b-pentaaza-cyclopenta[a]naphthalene]

Structure (SMILES): COc1cc2c(cc1-c1ccccc1)C(c1cccc(C(N)=O)c1)=NCC(=O)N2C [ND7001]
anxiogenic effects of restraint stress on behaviour [3]: antagonized the anxiogenic effects

Structure (SMILES): COc1ccc(Cc2nn3c([C@@H](CCCc4ccccc4)[C@@H](C)O)nc(C)c3c(=O)[nH]2)cc1OC [Bay 60-7550]
object recognition [4]: beneficial effect
cGMP [5]: preferentially increases cGMP
anxiogenic effects of restraint stress on behaviour [3]: antagonized the anxiogenic effects
anxiety-like behaviours [6]: reversed
long term potentiation (LTP) induction [7]: increases long term potentiation (LTP) induction
deficit in object recognition [8]: reverse the deficit in object recognition
activity in novel object and social recognition tasks [9]: active

Structure (SMILES): O=C(CCCN1CCC(O)(c2ccc(Cl)cc2)CC1)c1ccc(F)cc1 [haloperidol]
cGMP levels ([10]; patients): increased
cAMP levels ([10]; rats): increased

IC50 [2]: 471 nM
PDE10 % inhibition [1]: 68% inhibition
Structure (SMILES): Cc1nc2cnccc2n2c(-c3ccccc3Cl)nnc12 [Example Ib1, 1-(2-Chloro-phenyl)-4-methyl-2,3,5,7,9b-pentaaza-cyclopenta[a]naphthalene]

Structure (SMILES): COc1ccc(Cc2nccc3cc(OC)c(OC)cc23)cc1OC [papaverine]
apomorphine-induced stereotypies [11]: reduces apomorphine-induced stereotypies
dopamine concentration in rat brain [11]: reducing dopamine concentration
haloperidol-induced catalepsy [11]: increases haloperidol-induced catalepsy
attentional set-shifting deficits [12]: reverses attentional set-shifting deficits

Structure (SMILES): NCCN(CCN)/[N+]([O-])=N/O [detanonoate]
anxiogenic effects of restraint stress on behaviour [3]: antagonized the anxiogenic effects
